In the assay the target is T1, P2Y12 receptor (Homo sapiens, UniProt Q9H244).
T1 construct: expressed in transfected cells; host or cells: CHO cells (membranes)
The experiment in a line: Functional inhibition of 2-Me-S-ADP induced P2Y12 signalling (35S-GTPγS binding, membranes from P2Y12 transfected CHO-cells). It counts as biochemical. As to conditions: 35S-GTPγS, EC80 of 2-methyl-thio-adenosine diphosphate, P2Y12 CHO membranes; value given in each example; read-out: GTPγS(IC50 μM). The protocol:
Functional inhibition of- the P2Y12 receptor can be measured by in vitro assays using cell membranes from P2Y12 transfected CHO-cells, the methodology is indicated below.
Functional inhibition of 2-Me-S-ADP induced P2Y12 signalling: 5 μg of membranes were diluted in 200 μl of 200 mM NaCl, 1 mM MgCl2, 50 mM HEPES (pH 7.4), 0.01% BSA, 30 μg/ml saponin and 10 μM GDP. To this was added an EC80 concentration of agonist (2-methyl-thio-adenosine diphosphate), the required concentration of test compound and 0.1 μCi ^35S-GTPγS. The reaction was allowed to proceed at 30° C. for 45 min. Samples were then transferred on to GF/B filters using a cell harvester and washed with wash buffer (50 mM Tris (pH 7.4), 5 mM MgCl2, 50 mM NaCl). Filters were then covered with scintilant and counted for the amount of ^35S-GTPγS retained by the filter. Maximum activity was that determined in the presence of the agonist and minimum activity in the absence of the agonist following subtraction of the value determined for non-specific activity. The effect of compounds at various concentrations was plotted according to the equation
y=A+((B−A)/(1+((C/x)̂D)))
and IC50 estimated where A is the bottom plateau of the curve i.e. the final minimum y value B is the top of the plateau of the curve i.e. the final maximum y value C is the x value at the middle of the curve. This represents the log EC50 value when A+B=100 D is the slope factor. x is the original known x values. Y is the original known y values.

Each structure is given as a SMILES string.

T1 sequence (Q9H244 whole entry): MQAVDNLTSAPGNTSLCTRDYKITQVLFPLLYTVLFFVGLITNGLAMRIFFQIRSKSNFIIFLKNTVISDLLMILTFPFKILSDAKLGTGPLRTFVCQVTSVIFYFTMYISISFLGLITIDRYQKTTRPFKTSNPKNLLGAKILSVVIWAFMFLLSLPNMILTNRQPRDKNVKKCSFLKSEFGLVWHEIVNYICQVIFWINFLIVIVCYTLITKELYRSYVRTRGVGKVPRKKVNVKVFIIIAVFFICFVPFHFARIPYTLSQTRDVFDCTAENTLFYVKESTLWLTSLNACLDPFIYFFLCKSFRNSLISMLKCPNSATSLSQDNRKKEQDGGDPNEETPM

As a reminder, the IC50 is the concentration needed to halve the response being measured. Take `CN(c1ccc(F)cc1)S(=O)(=O)NC(=O)C1CCN(c2nc(CN3CCCC3=O)c(C(=O)C3CC3)cc2C#N)CC1` [Example 25, 1-{3-Cyano-5-(cyclopropylcarbonyl)-6-[(2-oxopyrrolidin-1-yl)methyl]pyridin-2-yl}-N-{[(4-fluorophenyl)(methyl)amino]sulfonyl}piperidine-4-carboxamide]: the IC50 was 0.026 µM. As for `C=CCCC(=O)c1cc(C#N)c(N2CCC(C(=O)NS(=O)(=O)Cc3ccccc3)CC2)nc1CN1CCCC1=O` [Example 26, N-(benzylsulfonyl)-1-{3-cyano-6-[(2-oxopyrrolidin-1-yl)methyl]-5-pent-4-enoylpyridin-2-yl}piperidine-4-carboxamide], the figure is 0.017 µM; as for `C=CCCC(=O)c1cc(C#N)c(N2CCC(C(=O)NS(=O)(=O)CC3CCCC3)CC2)nc1CN1CCCC1=O` [Example 27, 1-{3-cyano-6-[(2-oxopyrrolidin-1-yl)methyl]-5-pent-4-enoylpyridin-2-yl}-N-[(cyclopentylmethyl)sulfonyl]piperidine-4-carboxamide], 0.02 µM; as for `C=CCCC(=O)c1cc(C#N)c(N2CCC(C(=O)NS(=O)(=O)N(C)c3ccc(F)cc3)CC2)nc1CN1CCCC1=O` [Example 28, 1-{3-cyano-6-[(2-oxopyrrolidin-1-yl)methyl]-5-pent-4-enoylpyridin-2-yl}-N-{[(4-fluorophenyl)(methyl)amino]sulfonyl}piperidine-4-carboxamide], 0.022 µM. Under `C=CCCC(=O)c1cc(C#N)c(N2CCC(C(=O)NS(=O)(=O)N(C)c3ccccc3)CC2)nc1CN1CCCC1=O` [Example 29, 1-{3-cyano-6-[(2-oxopyrrolidin-1-yl)methyl]-5-pent-4-enoylpyridin-2-yl}-N-{[methyl(phenyl)amino]sulfonyl}piperidine-4-carboxamide] stands 0.013 µM; under `CCCC(=O)c1cc(Cl)c(N2CCC(C(=O)NS(=O)(=O)Cc3ccccc3)CC2)nc1CN1CCCC1=O` [Example 30, N-(Benzylsulfonyl)-1-{5-butyryl-3-chloro-6-[(2-oxopyrrolidin-1-yl)methyl]pyridin-2-yl}piperidine-4-carboxamide], 0.062 µM; under `CCCC(=O)c1cc(Cl)c(N2CCC(C(=O)NS(=O)(=O)N(C)c3ccc(F)cc3)CC2)nc1CN1CCCC1=O` [Example 31, 1-{5-Butyryl-3-chloro-6-[(2-oxopyrrolidin-1-yl)methyl]pyridin-2-yl}-N-{[(4-fluorophenyl)(methyl)amino]sulfonyl}piperidine-4-carboxamide], 0.109 µM.

Turning to `CCCC(=O)c1cc(Cl)c(N2CCC(C(=O)NS(=O)(=O)Cc3ccc(C)cc3)CC2)nc1CN1CCCC1=O` [Example 32, 1-{5-Butyryl-3-chloro-6-[(2-oxopyrrolidin-1-yl)methyl]pyridin-2-yl}-N-[(4-methylbenzyl)sulfonyl]piperidine-4-carboxamide], the IC50 stood at 0.055 µM. Under `CCCC(=O)c1cc(C#N)c(N2CCC(C(=O)NS(=O)(=O)N(C)c3ccc(F)cc3)CC2)nc1CN1CCCC1=O` [Example 33, 1-{5-Butyryl-3-cyano-6-[(2-oxopyrrolidin-1-yl)methyl]pyridin-2-yl}-N-{[(4-fluorophenyl)(methyl)amino]sulfonyl}piperidine-4-carboxamide] stands 0.011 µM; under `CCCC(=O)c1cc(C#N)c(N2CCC(C(=O)NS(=O)(=O)N(C)c3ccccc3)CC2)nc1CN1CCCC1=O` [Example 34, 1-{5-Butyryl-3-cyano-6-[(2-oxopyrrolidin-1-yl)methyl]pyridin-2-yl}-N-{[methyl(phenyl)amino]sulfonyl}piperidine-4-carboxamide], 0.012 µM; under `CCCC(=O)c1cc(C#N)c(N2CCC(C(=O)NS(=O)(=O)Cc3ccc(OC)cc3)CC2)nc1CN1CCCC1=O` [Example 35, 1-{5-Butyryl-3-cyano-6-[(2-oxopyrrolidin-1-yl)methyl]pyridin-2-yl}-N-[(4-methoxybenzyl)sulfonyl]piperidine-4-carboxamide], 0.0097 µM. As for `CCCC(=O)c1cc(C#N)c(N2CCC(C(=O)NS(=O)(=O)CC3CCCCC3)CC2)nc1CN1CCCC1=O` [Example 36, 1-{5-Butyryl-3-cyano-6-[(2-oxopyrrolidin-1-yl)methyl]pyridin-2-yl}-N-[(cyclohexylmethyl)sulfonyl]piperidine-4-carboxamide], the IC50 worked out at 0.014 µM. Under `CCCC(=O)c1cc(C#N)c(N2CCC(C(=O)NS(=O)(=O)Nc3ccc(F)cc3)CC2)nc1CN1CCCC1=O` [Example 37, 1-{5-Butyryl-3-cyano-6-[(2-oxopyrrolidin-1-yl)methyl]pyridin-2-yl}-N-{[(4-fluorophenyl)amino]sulfonyl}piperidine-4-carboxamide] stands 0.019 µM.

In the case of `CCCC(=O)c1cc(C#N)c(N2CCC(C(=O)NS(=O)(=O)Nc3ccccc3)CC2)nc1CN1CCCC1=O` [Example 38, N-(Anilinosulfonyl)-1-{5-butyryl-3-cyano-6-[(2-oxopyrrolidin-1-yl)methyl]pyridin-2-yl}piperidine-4-carboxamide], the IC50 turned out to be 0.033 µM. As for `C=CCCC(=O)c1cc(C#N)c(N2CCC(C(=O)NS(=O)(=O)Cc3ccc(C)cc3)CC2)nc1CN1CCCC1=O` [Example 40, 1-{3-cyano-6-[(2-oxopyrrolidin-1-yl)methyl]-5-pent-4-enoylpyridin-2-yl}-N-[(4-methylbenzyl)sulfonyl]piperidine-4-carboxamide], the figure is 0.0081 µM; as for `C=CCCC(=O)c1cc(C#N)c(N2CCC(C(=O)NS(=O)(=O)Cc3ccc(F)cc3F)CC2)nc1CN1CCCC1=O` [Example 41, 1-{3-cyano-6-[(2-oxopyrrolidin-1-yl)methyl]-5-pent-4-enoylpyridin-2-yl}-N-[(2,4-difluorobenzyl)sulfonyl]piperidine-4-carboxamide], 0.009 µM.

In the case of `N#Cc1cc(C(=O)CCC(F)(F)F)c(CN2CCCC2=O)nc1N1CCC(C(=O)NS(=O)(=O)Cc2ccc(F)cc2F)CC1` [Example 42, 1-{3-Cyano-6-[(2-oxopyrrolidin-1-yl)methyl]-5-(4,4,4-trifluorobutanoyl)pyridin-2-yl}-N-[(2,4-difluorobenzyl)sulfonyl]piperidine-4-carboxamide], the IC50 was determined as 0.016 µM. For the compound `Cc1ccc(CS(=O)(=O)NC(=O)C2CCN(c3nc(CN4CCCC4=O)c(C(=O)CCC(F)(F)F)cc3C#N)CC2)cc1` [Example 43, 1-{3-cyano-6-[(2-oxopyrrolidin-1-yl)methyl]-5-(4,4,4-trifluorobutanoyl)pyridin-2-yl}-N-[(4-methylbenzyl)sulfonyl]piperidine-4-carboxamide], the IC50 is 0.019 µM.

As for `N#Cc1cc(C(=O)CCC(F)(F)F)c(CN2CCCC2=O)nc1N1CCC(C(=O)NS(=O)(=O)CC2CCCC2)CC1` [Example 44, 1-{3-cyano-6-[(2-oxopyrrolidin-1-yl)methyl]-5-(4,4,4-trifluorobutanoyl)pyridin-2-yl}-N-[(cyclopentylmethyl)sulfonyl]piperidine-4-carboxamide], the IC50 was determined as 0.146 µM. As for `CN(c1ccc(F)cc1)S(=O)(=O)NC(=O)C1CCN(c2nc(CN3CCCC3=O)c(C(=O)CCC(F)(F)F)cc2C#N)CC1` [Example 45, 1-{3-cyano-6-[(2-oxopyrrolidin-1-yl)methyl]-5-(4,4,4-trifluorobutanoyl)pyridin-2-yl}-N-{[(4-fluorophenyl)(methyl)amino]sulfonyl}piperidine-4-carboxamide], the figure is 0.05 µM; as for `CCCCC(=O)c1cc(C#N)c(N2CCC(C(=O)NS(=O)(=O)Nc3ccc(F)cc3)CC2)nc1CN1CCCC1=O` [Example 46, 1-{3-cyano-6-[(2-oxopyrrolidin-1-yl)methyl]-5-pentanoylpyridin-2-yl}-N-{[(4-fluorophenyl)amino]sulfonyl}piperidine-4-carboxamide], 0.021 µM; as for `CCCCC(=O)c1cc(C#N)c(N2CCC(C(=O)NS(=O)(=O)Cc3ccc(C#N)cc3)CC2)nc1CN1CCCC1=O` [Example 47, N-[(4-cyanobenzyl)sulfonyl]-1-{3-cyano-6-[(2-oxopyrrolidin-1-yl)methyl]-5-pentanoylpyridin-2-yl}piperidine-4-carboxamide], 0.043 µM. Under `CCCCC(=O)c1cc(C#N)c(N2CCC(C(=O)NS(=O)(=O)CC3CCCCC3)CC2)nc1CN1CCCC1=O` [Example 48, 1-{3-cyano-6-[(2-oxopyrrolidin-1-yl)methyl]-5-pentanoylpyridin-2-yl}-N-[(cyclohexylmethyl)sulfonyl]piperidine-4-carboxamide] stands 0.023 µM; under `CCCCC(=O)c1cc(C#N)c(N2CCC(C(=O)NS(=O)(=O)Cc3ccc(C(C)C)cc3)CC2)nc1CN1CCCC1=O` [Example 49, 1-{3-cyano-6-[(2-oxopyrrolidin-1-yl)methyl]-5-pentanoylpyridin-2-yl}-N-[(4-isopropylbenzyl)sulfonyl]piperidine-4-carboxamide], 0.031 µM. As for `C=CCCC(=O)c1cc(Cl)c(N2CCC(C(=O)NS(=O)(=O)N(C)c3ccc(F)cc3)CC2)nc1CN1CCCC1=O` [Example 50, 1-{3-chloro-6-[(2-oxopyrrolidin-1-yl)methyl]-5-pent-4-enoylpyridin-2-yl}-N-{[(4-fluorophenyl)(methyl)amino]sulfonyl}piperidine-4-carboxamide], the figure is 0.167 µM.
